The NIST ThermoML archive (doi:10.1016/j.jct.2018.02.022)
Where “and” joins values, the source holds several entries; their conditions need not be identical. Equal values may be shown once.

Experiment: xn = mol fraction of the nth substance listed
Conditions: 92.3 kPa, Liquid; for viscosity: Concentric cylinders viscometry; for speed of sound: Frequency=3 MHz, Single path-length method; for mass density: Vibrating tube method

CCO [ethanol] + O
Conditions	mass density, 303.15 K	mass density, 308.15 K	speed of sound, 303.15 K [m/s]	speed of sound, 308.15 K [m/s]	viscosity, 303.15 K [mPa·s]	viscosity, 308.15 K [mPa·s]
x1 = 0.0024	994.464 kg/m3	992.863 kg/m3	1513.4	1523.3	–	–
x1 = 0.0201	986.86 kg/m3	985.15 kg/m3	–	–	0.9816	0.8821
x1 = 0.0202	986.01 kg/m3	984.706 kg/m3	1541.3	1548.3	–	–
x1 = 0.0295	983.11 kg/m3	981.361 kg/m3	1555	1560.3	–	–
x1 = 0.0366	980.577 kg/m3	978.735 kg/m3	1564.9	1568.9	–	–
x1 = 0.0408	978.54 kg/m3	976.58 kg/m3	–	–	1.162	1.006
x1 = 0.0497	976.06 kg/m3	973.32 kg/m3	–	–	1.223	1.073
x1 = 0.0513	975.532 kg/m3	973.534 kg/m3	1583.5	1584.5	–	–
x1 = 0.06	971.89 kg/m3 and 972.787 kg/m3	970.651 kg/m3 and 969.36 kg/m3	1592.4	1591.8	1.323	1.158
x1 = 0.0707	969.513 kg/m3	967.196 kg/m3	1601.4	1598.7	–	–
x1 = 0.0796	966.81 kg/m3	964.08 kg/m3	–	–	1.49	1.284
x1 = 0.0801	966.689 kg/m3	964.224 kg/m3	1607	1602.7	–	–
x1 = 0.0904	963.577 kg/m3	960.944 kg/m3	1610.8	1604.7	–	–
x1 = 0.0997	960.797 kg/m3	958.013 kg/m3	1611.9	1604.4	–	–
x1 = 0.1004	958.69 kg/m3	955.87 kg/m3	–	–	1.656	1.43
x1 = 0.1294	951.878 kg/m3	948.682 kg/m3	1602.7	1592.3	–	–
x1 = 0.1497	945.612 kg/m3	942.174 kg/m3	1588.3	1576.5	–	–
x1 = 0.1499	945.56 kg/m3	942.15 kg/m3	–	–	1.88	1.591
x1 = 0.1984	928.77 kg/m3	925.04 kg/m3	–	–	1.994	1.696
x1 = 0.2008	929.658 kg/m3	925.836 kg/m3	1540.8	1527.8	–	–
x1 = 0.2499	915.3 kg/m3	911.28 kg/m3	–	–	2.048	1.719
x1 = 0.2503	914.742 kg/m3	910.712 kg/m3	1493.5	1480	–	–
x1 = 0.2998	900.761 kg/m3	896.603 kg/m3	1450.6	1436.6	–	–
x1 = 0.3016	900.76 kg/m3	896.6 kg/m3	–	–	1.982	1.697
x1 = 0.3499	888.09 kg/m3	883.84 kg/m3	–	–	1.934	1.664
x1 = 0.3507	887.521 kg/m3	883.273 kg/m3	1411.8	1397.3	–	–
x1 = 0.399	876.09 kg/m3	871.78 kg/m3	–	–	1.863	1.617
x1 = 0.3992	875.988 kg/m3	871.678 kg/m3	1379.4	1364.6	–	–
x1 = 0.4495	865.03 kg/m3	860.66 kg/m3	–	–	1.783	1.55
x1 = 0.4514	864.712 kg/m3	860.353 kg/m3	1348.7	1333.4	–	–
x1 = 0.4989	855.7 kg/m3	851.3 kg/m3	–	–	1.697	1.482
x1 = 0.5002	854.622 kg/m3	850.223 kg/m3	1322.3	1306.7	–	–
x1 = 0.5494	845.433 kg/m3	841.009 kg/m3	1298.6	1282.7	–	–
x1 = 0.5495	846.35 kg/m3	841.93 kg/m3	–	–	1.636	1.437
x1 = 0.6018	836.274 kg/m3	831.83 kg/m3	1275.2	1259	–	–
x1 = 0.6067	835.6 kg/m3	831.06 kg/m3	–	–	1.528	1.347
x1 = 0.6503	828.55 kg/m3 and 828.435 kg/m3	823.98 kg/m3 and 824.09 kg/m3	1255.3	1238.8	1.46	1.292
x1 = 0.6956	821.65 kg/m3	817.19 kg/m3	–	–	1.388	1.229
x1 = 0.7006	820.66 kg/m3	816.2 kg/m3	1235.5	1218.8	–	–
x1 = 0.7355	815.498 kg/m3	811.052 kg/m3	1222.2	1206.3	–	–
x1 = 0.75	813.63 kg/m3	809.16 kg/m3	–	–	1.315	1.171
x1 = 0.7843	809.09 kg/m3	804.63 kg/m3	–	–	1.272	1.135
x1 = 0.7965	807.074 kg/m3	802.628 kg/m3	1199.9	1183	–	–
x1 = 0.8433	800.833 kg/m3	796.401 kg/m3	1183.1	1166.1	–	–
x1 = 0.8475	801.24 kg/m3	796.81 kg/m3	–	–	1.201	1.077
x1 = 0.8864	795.58 kg/m3	791.17 kg/m3	–	–	1.141	1.027
x1 = 0.892	794.442 kg/m3	790.037 kg/m3	1165.4	1148.7	–	–
x1 = 0.9093	792.256 kg/m3	787.861 kg/m3	1159.2	1142.6	–	–
x1 = 0.9207	790.841 kg/m3	786.448 kg/m3	1155.2	1138.3	–	–
x1 = 0.929	789.85 kg/m3	785.46 kg/m3	–	–	1.086	0.9821
x1 = 0.9307	789.562 kg/m3	785.175 kg/m3	1151.5	1134.6	–	–
x1 = 0.9398	788.477 kg/m3	784.096 kg/m3	1148.3	1131.4	–	–
x1 = 0.9483	787.394 kg/m3	783.019 kg/m3	1145.2	1128.4	–	–
x1 = 0.9603	785.958 kg/m3	781.59 kg/m3	1141.1	1124.2	–	–
x1 = 0.9702	784.743 kg/m3	780.379 kg/m3	1137.5	1120.6	–	–
x1 = 0.9801	783.417 kg/m3	779.061 kg/m3	1134.3	1117.5	–	–
x1 = 0.9895	782.456 kg/m3	778.103 kg/m3	1130.8	1114	–	–
x1 = 1	780.941 kg/m3	776.592 kg/m3	1126.4	1109.6	0.992	0.9039
